Test results: patent US20060106207A1, “Nucleotide sequences that encode deregulated phosphoglycerate dehydrogenases of coryneform bacteria and method for producing l-serine” (Forschungszentrum Julich GMBH, priority 2002, published 2006)

Legend:
Assay type in all cases: biochemical, Corynebacterium glutamicum
[1] = system: Wild Type 3-Phosphoglycerate-Dehydrogenase of C. glutamicum; assay: Inhibition of wild type 3-phosphoglycerate-dehydrogenase by L-serine in cell-free extracts
Description: (§1) The cells were harvested in the exponential growth phase at OD600 of 5 to 8 and washed twice in 100 mM Tris-HCl, pH 7.5. The cell pellets were then frozen at −20° C. until disintegration. The frozen cell pellets were moisturized on ice and resuspended with 2 ml cold Tris-HCl pH 7.5/10% glycerine in a Brenson sonifier for 10 minutes. Then the cell fragments were separated by centrifugation at 13000 rpm and 4° C. in a Sigma -202 MK centrifuge. The thus obtained supernatant is desalted as a raw extract initially on a PD-10 column using the conditions set by the manufacturer (Amersham Pharmacia Biotech) and then immediately subjected to enzyme measurement. The enzyme test relied upon the photometric detection of the formation of NADH in the reaction of 3-phosphoglycerate and NAD to NADH.
In the following tests were made whether the C-terminus foreshortened mutant serAΔ197 was no longer blocked by L-serine. For that purpose initially the inhibition of the 3-phosphoglycerate-dehydrogenase of the wild type was investigated in cell-free extracts of C. glutamicum by L-serine based upon the above described enzyme tests. For that purpose to the test bath were added 1, 5 and 10 mM L-serine and were incubated for 5 minutes at 30° C. The reaction was then started by the addition of 15 mM […]. The incubation was necessary in order to be able to detect an inhibition (Table 4). This time dependency of the L-serine inhibition which required several minutes of incubation before a constant level of inhibition was reached has also been described for other 3-phosphoglycerate-dehydrogenase, for example for the purified enzyme of B. subtilis (Saski R. and Pitzer L., 1975, Eur. J. Biochem., 51:415-427).

[2] = system: overexpressed 3-phosphoglycerate-dehydrogenase in strain 13032pZ1serA; assay: Inhibition of the overexpressed 3-phosphoglycerate-dehydrogenase by L-serine in strain 13032pZ1serA; conditions: 10 mM L-serine, 5 minutes of incubation at 30° C.
Description: as §1
(§2) In the following tests were made whether the C-terminus foreshortened mutant serAΔ197 was no longer blocked by L-serine. For that purpose initially the inhibition of the 3-phosphoglycerate-dehydrogenase of the wild type was investigated in cell-free extracts of C. glutamicum by L-serine based upon the above described enzyme tests. For that purpose to the test bath were added 1, 5 and 10 mM L-serine and were incubated for 5 minutes at 30° C. The reaction was then started by the addition of 15 mM […]. […]

[3] = system: C-terminal foreshortened 3-phosphoglycerate-dehydrogenase mutant (serAΔ197) in strain 13032pZ1serAΔ197; assay: Inhibition of the overexpressed 3-phosphoglycerate-dehydrogenase by L-serine in strain 13032pZ1serAΔ197
Description: as §1, §2

[4] = system: 3-phosphoglycerate-dehydrogenase; assay: 3-phosphoglycerate-dehydrogenase enzyme test of strains overexpressing serA or shortened serA alleles
Description: The plasmids pziserA, pZiserAΔ79, pZiserAΔ188), pZiserAΔ197, pZiserAΔ205 and pZiserAΔ211 were introduced by electroporation individually into C. glutamicum. As a control, the media plasmid pZ1 was also electroporated into C. glutamicum ATCC 13032. The thus obtained strains 13032pZ1, 13032pZ1serA, 13032pZiserAΔ79, 13032pZiserAΔ188, 13032pZiserAΔ197, 13032pZiserAΔ205 and 13032pZiserAΔ211 were analyzed for overexpression of the 3-phosphoglycerate-dehydrogenase by means of is the 3-phosphoglycerate-dehydrogenase enzyme test. For this purpose the […] strains were activated in complex medium (CgIII=2.5 g NaCl, 10 g bacto-peptone, 10 g bacto-yeast extract, pH 7.4 with 2% glucose) and the minimal medium CGXII and each was separately seeded from the preculture. The medium was identical with the medium CGXII described by Keilhauer et al (Journal of Bacteriology (1993) 175: 5593-5603) but containing additionally 25 μg/mL of kanamycin.
The cells were harvested in the exponential growth phase at OD600 of 5 to 8 and washed twice in 100 mM Tris-HCl, pH 7.5. The cell pellets were then frozen at −20° C. until disintegration. […]
With these test results a specific activity of about 150 mU/mg protein can be determined for the wild-type 3-phosphoglycerate-dehydrogenase activity. […]

With `N[C@@H](CO)C(=O)O` [L-Serine, L-serine] the “Relative 3-Phosphoglycerate-Dehydrogenase Activity” value ([1]; 1 mM L-serine, 5 minute incubation at 30° C.) was 96%, the “Relative 3-Phosphoglycerate-Dehydrogenase Activity” value ([1]; 1 mM L-serine, without incubation) was 106% and the “Relative 3-Phosphoglycerate-Dehydrogenase Activity” value ([1]; 5 mM L-serine, 5 minute incubation at 30° C.) was 82%. For the same molecule, the “Relative 3-Phosphoglycerate-Dehydrogenase Activity” value ([1]; 5 mM L-serine, without incubation) was 112%, the “Relative 3-Phosphoglycerate-Dehydrogenase Activity” value ([1]; 10 mM L-serine, 5 minute incubation at 30° C.) was 56% and the “Relative 3-Phosphoglycerate-Dehydrogenase Activity” value ([1]; 10 mM L-serine, without incubation) was 104%. For the same molecule, the “Relative 3-Phosphoglycerate-Dehydrogenase Activity” value [2] was 34%, the “L-serine inhibition of the foreshortened mutant (in words)” value [3] was “no longer was significantly limited” and the “Relative 3-Phosphoglycerate-Dehydrogenase Activity” value ([3]; 10 mM L-serine, 5 minutes of incubation at 30° C.) was 95%.

B1: serAΔ197: serA allele coding for PGD with deletion of 197 C-terminal amino acids, SEQ ID No. 1 / 7 (protein, listed as Corynebacterium glutamicum)
chain: MSQNGRPVVLIADKLAQSTVDALGDAVEVRWVDGPNRPELLDAVKEADALLVRSATTVDAEVIAAAPNLKIVGRAGVGLDNVDIPAATEAGVMVANAPTSNIHSACEHAISLLLSTARQIPAADATLREGEWKRSSFNGVEIFGKTVGIVGFGHIGQLFAQRLAAFETTIVAYDPYANPARAAQLNVELVELDELMSRSDFVTIHLPKTKETAGMFDAQLLAKSKKGQIIINAARGGLVDEQALADAIESGHIRGAGFDVYSTEPCTDSPLFKLPQVVVTPHLGASTEEAQDRAGTDVADSVLKALAGEFVADAVNVSGGRVGEEVAVWMDLA
For B1, the “share of the wild type activity” value ([4]; compared with overexpressed wild type) was “more than 60%” and the “overexpression / increase in specific 3-phosphoglycerate-dehydrogenase activity” value ([4]; with respect to the wild type protein) was 10 fold.
